In this assay the target is T1, CCR2 (Homo sapiens, UniProt P41597).
T1 sequence (P41597 1-360 isoform P41597-2): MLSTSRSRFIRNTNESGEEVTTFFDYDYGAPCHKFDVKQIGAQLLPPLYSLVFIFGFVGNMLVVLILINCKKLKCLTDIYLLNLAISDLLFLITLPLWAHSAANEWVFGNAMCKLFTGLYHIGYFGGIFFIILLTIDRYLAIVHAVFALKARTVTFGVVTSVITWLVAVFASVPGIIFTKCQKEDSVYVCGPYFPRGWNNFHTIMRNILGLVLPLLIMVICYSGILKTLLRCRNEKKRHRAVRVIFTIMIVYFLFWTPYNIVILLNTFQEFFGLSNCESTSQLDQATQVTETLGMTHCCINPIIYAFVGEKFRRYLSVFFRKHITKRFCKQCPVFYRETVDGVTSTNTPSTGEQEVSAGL
The assay is described as follows: MCP-1 Receptor Binding Assay in THP-1 Cells. To be noted: for IC50: THP-1 cells, 0.5 nM 125I labeled MCP-1, 2 hours at 30° C., read-out: Mean Ligand Binding IC50 (inhibition of MCP-1 binding to CCR2). The procedure: THP-1 cells were obtained from American Type Culture Collection (Manassas, Va., USA). […] The cell density was maintained between 0.5×10^6 cells/mL.
Cells were then harvested onto a filter plate, dried, and 20 μL of Microscint 20 was added to each well. Plates were counted in a TopCount NXT, Microplate Scintillation & Luminescence Counter (Perkin-Elmer Life Sciences, Inc. Boston, Mass.). Blank values (buffer only) were subtracted from all values and drug treated values were compared to vehicle treated values. 1 μM cold MCP-1 was used for nonspecific binding.

The results in this text go back to patent publication US7799824B2, “Quaternary salt CCR2 antagonists” (OraPharma, Inc., priority 2004, dated 2010).

What is called IC50 is the midpoint of a concentration-inhibition curve. In the case of `Cc1ccc(C(=O)Nc2ccc(C[N+](C)(C)C3CCOCC3)cc2)cc1Cl` [Cpd 28, [4-(3-chloro-4-methyl-benzoylamino)-benzyl]-dimethyl-(tetrahydro-pyran-4-yl)-ammonium iodide], the IC50 came to 0.46 µM.

As to `Cc1cc(Cl)ccc1C(=O)Nc1ccc(C[N+](C)(C)C2CCOCC2)cc1` [Cpd 32, [4-(4-chloro-2-methyl-benzoylamino)-benzyl]-dimethyl-(tetrahydro-pyran-4-yl)-ammonium iodide], the half-maximal inhibitory concentration (IC50) came out at 3.4 µM.

Consider `C[N+](C)(Cc1ccc(NC(=O)c2ccc(Cl)c(C(F)(F)F)c2)cc1)C1CCOCC1` [Cpd 33, [4-(4-chloro-3-trifluoromethyl-benzoylamino)-benzyl]-dimethyl-(tetrahydro-pyran-4-yl)-ammonium iodide], for which the 50% inhibitory concentration (IC50) is 0.4 µM.

With `Cc1ccc(Cl)cc1C(=O)Nc1ccc(C[N+](C)(C)C2CCOCC2)cc1` [Cpd 35, [4-(5-chloro-2-methyl-benzoylamino)-benzyl]-dimethyl-(tetrahydro-pyran-4-yl)-ammonium iodide], the IC50 was determined as 0.4 µM.

`C[N+](C)(CCc1ccc(NC(=O)c2cccc(Br)c2)cc1)C1CCOCC1` [Cpd 37, {2-[4-(3-bromo-benzoylamino)-phenyl]-ethyl}-dimethyl-(tetrahydro-pyran-4-yl)-ammonium iodide]: the concentration for half-maximal inhibition (IC50) came to 10.2 µM.

`C[N+](C)(Cc1cccc(NC(=O)C=Cc2cccc(Br)c2)c1)C1CCOCC1` [Cpd 38, {3-[3-(3-bromo-phenyl)-acryloylamino]-benzyl}-dimethyl-(tetrahydro-pyran-4-yl)-ammonium iodide]: the IC50 worked out at 5 µM.

As a reminder, the inhibition is the change of the read-out against control, counted positive when it falls. For `C[N+](C)(Cc1ccc(NC(=O)C=Cc2ccc(Cl)c(Cl)c2)cc1)C1CCSCC1` [Cpd 41, {4-[3-(3,4-dichloro-phenyl)-acryloylamino]-benzyl}-dimethyl-(tetrahydro-thiopyran-4-yl)-ammonium iodide], where the note is “MCP-1 binding to CCR2, test concentration of 25 μM, unless indicated otherwise, read-out: % Inhibition Ligand Binding”, the inhibition at 25 µM amounted to 87%.

Turning to `C[N+](C)(Cc1ccc(NC(=O)C=Cc2cc(F)cc(F)c2)cc1)C1CCOCC1` [Cpd 42, {4-[3-(3,5-difluoro-phenyl)-acryloylamino]-benzyl}-dimethyl-(tetrahydro-pyran-4-yl)-ammonium iodide], the half-inhibitory concentration (IC50) was 5.7 µM.

As for `C[N+](C)(Cc1ccc(NC(=O)C=Cc2cccc(Br)c2)cc1)C1CCOCC1` [Cpd 43, {4-[3-(3-bromo-phenyl)-acryloylamino]-benzyl}-dimethyl-(tetrahydro-pyran-4-yl)-ammonium iodide], the half-maximal inhibitory concentration (IC50) turned out to be 0.34 µM.

As to `C[N+](C)(Cc1ccc(NC(=O)C=Cc2cccc(Br)c2)cc1)C1CCSCC1` [Cpd 44, {4-[3-(3-bromo-phenyl)-acryloylamino]-benzyl}-dimethyl-(tetrahydro-thiopyran-4-yl)-ammonium iodide], the half-maximal inhibitory concentration (IC50) came out at 14.6 µM.

For `C[N+](C)(Cc1ccc(NC(=O)C=Cc2cccc(Cl)c2)cc1)C1CCOCC1` [Cpd 45, {4-[3-(3-chloro-phenyl)-acryloylamino]-benzyl}-dimethyl-(tetrahydro-pyran-4-yl)-ammonium iodide], the 50% inhibitory concentration (IC50) is 0.26 µM.

Turning to `C[N+](C)(Cc1ccc(NC(=O)C=Cc2ccc(Br)cc2)cc1)C1CCOCC1` [Cpd 47, {4-[3-(4-bromo-phenyl)-acryloylamino]-benzyl}-dimethyl-(tetrahydro-pyran-4-yl)-ammonium iodide], the concentration for half-maximal inhibition (IC50) is 3.7 µM.

For the compound `C[N+]1(Cc2ccc(CNC(=O)C=Cc3ccc(Cl)c(Cl)c3)cc2)CCCCC1` [Cpd 48, 1-(4-{[3-(3,4-dichloro-phenyl)-acryloylamino]-methyl}-benzyl)-1-methyl-piperidinium iodide], the concentration for half-maximal inhibition (IC50) turned out to be 8.4 µM.

`C[N+]1(Cc2ccc(CNC(=O)C=Cc3cccc(Br)c3)cc2)CCCCC1` [Cpd 49, 1-(4-{[3-(3-bromo-phenyl)-acryloylamino]-methyl}-benzyl)-1-methyl-piperidinium iodide]: the IC50 was 11.9 µM.

Turning to `C[N+]1(Cc2ccc(NC(=O)c3ccc(Cl)c(Cl)c3)cc2)CCCCC1` [Cpd 50, 1-[4-(3,4-dichloro-benzoylamino)-benzyl]-1-methyl-piperidinium iodide], the IC50 turned out to be 2.6 µM.
